Test results as given in patent US9302999B2, “Substituted triazoles as herbicides” (E. I. DU PONT DE NEMOURS AND COMPANY, priority 2012, dated 2016).

Legend:
Type in all cases: in vivo
[1] = tested on: morningglory (Ipomoea spp.); assay: Test A pre-/postemergence: morningglory
Method in brief: (§1)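 Seeds were sown in loam/sand blend and sprayed preemergence (directed soil spray) and, simultaneously, postemergence at 2–10 cm, one- to two-leaf stage, using compounds in non-phytotoxic solvent with surfactant. After ~10 days in greenhouse, injury was rated visually versus untreated controls, 0 (no effect) to 100 (complete control).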

[2] = tested on: large crabgrass (Digitaria sanguinalis); assay: Test C pre-/postemergence: large crabgrass
Method in brief: (§2)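 Visual injury scored 0–100 (100 = complete control) against untreated controls after 13–15 greenhouse days. Surfactant-containing solvent formulations applied either to soil after sowing (loam/sand) or over 1- to 4-leaf plants, 2–18 cm tall.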

[3] = tested on: foxtail, giant (giant foxtail, Setaria faberii); assay: Test C pre-/postemergence: foxtail, giant
Method in brief: as §2

[4] = tested on: corn (Zea mays); assay: Test C pre-/postemergence: corn
Method in brief: as §2

[5] = tested on: barnyardgrass (Echinochloa crus-galli); assay: Test A pre-/postemergence: barnyardgrass
Method in brief: as §1

[6] = tested on: kochia (Kochia scoparia); assay: Test C pre-/postemergence: kochia; details: Postemergence
Method in brief: as §2

[7] = tested on: barnyardgrass (Echinochloa crus-galli); assay: Test B flooded paddy: barnyardgrass; details: Flood, applied to paddy water at 2-leaf stage, visually evaluated after 13 to 15 days
Method in brief: (§3)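 2-leaf plants; pots flooded 3 cm over soil; compound added to paddy water, depth kept constant. Greenhouse 13–15 d. Visual rating vs controls, 0–100 scale (100 = complete control); dash = no result.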

[8] = tested on: velvetleaf (Abutilon theophrasti); assay: Test A pre-/postemergence: velvetleaf
Method in brief: as §1

[9] = tested on: ducksalad (Heteranthera limosa); assay: Test B flooded paddy: ducksalad; details: Flood, applied to paddy water at 2-leaf stage, visually evaluated after 13 to 15 days
Method in brief: as §3

[10] = tested on: chickweed (common chickweed, Stellaria media); assay: Test C postemergence: chickweed
Method in brief: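 Response values are visual ratings, 0 (no effect) to 100 (complete control), made by comparison with untreated controls 13 to 15 days after postemergence treatment of greenhouse-grown potted plants that were 2 to 18 cm high at spraying.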

[11] = tested on: soybean (Glycine max); assay: Test C pre-/postemergence: soybean
Method in brief: as §2

[12] = Postemergence, 125 g ai/ha, 0 to 100 scale, 0 is no effect, 100 is complete control
[13] = Postemergence, 500 g ai/ha, 0 to 100 scale, 0 is no effect, 100 is complete control
[14] = Preemergence, 125 g ai/ha, 0 to 100 scale where 0 is no effect and 100 is complete control
[15] = Preemergence, 500 g ai/ha, 0 to 100 scale (0 no effect, 100 complete control)
[16] = Postemergence, 31 g ai/ha, scale 0 to 100 (0 no effect, 100 complete control)
[17] = Postemergence, 62 g ai/ha, scale 0 to 100 (0 no effect, 100 complete control)
[18] = Postemergence, 125 g ai/ha, scale 0 to 100, 0 no effect, 100 complete control
[19] = Postemergence, 250 g ai/ha, scale 0 to 100
[20] = Preemergence, 31 g ai/ha, scale 0 (no effect) to 100 (complete control)
[21] = Preemergence, 62 g ai/ha, scale of 0 to 100, 0 is no effect, 100 is complete control
[22] = Preemergence, 125 g ai/ha, scale 0 to 100, 0 no effect, 100 complete control
[23] = Preemergence, 250 g ai/ha, scale 0 to 100, 0 no effect, 100 complete control
[24] = 31 g ai/ha, scale 0 to 100 (0 no effect, 100 complete control)
[25] = 62 g ai/ha, scale 0 to 100 (0 no effect, 100 complete control)
[26] = 125 g ai/ha, scale 0 to 100, 0 no effect, 100 complete control
[27] = Postemergence, 500 g ai/ha, visual rating on 0 to 100 scale (0 no effect, 100 complete control), approximately ten days
[28] = Preemergence, 31 g ai/ha, scale of 0 to 100, 0 is no effect, 100 is complete control

CCOc1nn(-c2ccc(Cl)cc2)nc1Cc1ccnc(C(F)(F)F)c1 [Compound 188]
Plant response rating, Morningglory [1, 12]: 90
Morningglory plant response rating [1, 13]: 100
Plant response rating, Morningglory [1, 14]: 20
Plant response rating, Morningglory [1, 15]: 90
Plant response rating, Crabgrass, Large [2, 16]: 50
Plant response rating, Crabgrass, Large [2, 17]: 85
Plant response rating, Crabgrass, Large [2, 18]: 95
Plant response rating, Crabgrass, Large [2, 19]: 95
Plant response rating, Crabgrass, Large [2, 20]: 98
Plant response rating, Crabgrass, Large [2, 21]: 100
Plant response rating, Crabgrass, Large [2, 22]: 100
Plant response rating, Crabgrass, Large [2, 23]: 100
Plant response rating, Foxtail, Giant [3, 16]: 98
Plant response rating, Foxtail, Giant [3, 17]: 98
Plant response rating, Foxtail, Giant [3, 18]: 98
Plant response rating, Foxtail, Giant [3, 19]: 100
Plant response rating, Foxtail, Giant [3, 20]: 100
Plant response rating, Foxtail, Giant [3, 21]: 100
Plant response rating, Foxtail, Giant [3, 22]: 100
Plant response rating, Foxtail, Giant [3, 23]: 100
Plant response rating, Corn [4, 16]: 10
Plant response rating, Corn [4, 17]: 20
Plant response rating, Corn [4, 18]: 20
Plant response rating, Corn [4, 19]: 35
Plant response rating, Corn [4, 20]: 5
Plant response rating, Corn [4, 21]: 5
Plant response rating, Corn [4, 22]: 10
Plant response rating, Corn [4, 23]: 20
Plant response rating, Barnyardgrass [5, 12]: 90
Barnyardgrass plant response rating [5, 13]: 90
Plant response rating, Barnyardgrass [5, 14]: 90
Plant response rating, Barnyardgrass [5, 15]: 100
Plant response rating, Kochia [6, 24]: 70
Plant response rating, Kochia [6, 25]: 90
Plant response rating, Kochia [6, 26]: 90
Plant response rating, Kochia ([6]; 250 g ai/ha, scale 0 to 100 (0 no effect, 100 complete control)): 90
Plant response rating, Barnyardgrass (0 to 100 scale, 0 is no effect, 100 is complete control) ([7]; 125 g ai/ha): 75
Plant response rating, Velvetleaf [8, 12]: 70
Velvetleaf plant response rating [8, 13]: 90
Plant response rating, Velvetleaf [8, 14]: 40
Plant response rating, Velvetleaf [8, 15]: 90
Plant response rating, Ducksalad (0 to 100 scale, 0 is no effect, 100 is complete control) ([9]; 125 g ai/ha): 90
Plant response rating, Chickweed [10, 24]: 80
Plant response rating, Chickweed [10, 25]: 90
Plant response rating, Chickweed [10, 26]: 90
Plant response rating, Chickweed ([10]; 250 g ai/ha, scale 0 to 100): 95
Plant response rating, Soybean [11, 16]: 40
Plant response rating, Soybean [11, 17]: 50
Plant response rating, Soybean [11, 18]: 50
Plant response rating, Soybean ([11]; Postemergence, 250 g ai/ha, scale 0 to 100 (0 no effect, 100 complete control)): 55
Plant response rating, Soybean [11, 20]: 5
Plant response rating, Soybean [11, 21]: 20
Plant response rating, Soybean [11, 23]: 65

Cc1nn(-c2ccc(F)c(C(F)(F)F)c2)nc1Cc1ccnc(C(F)(F)F)c1 [Compound 156]
Plant response rating, Morningglory [1, 12]: 90
Morningglory plant response rating [1, 27]: 90
Plant response rating, Morningglory [1, 14]: 80
Plant response rating, Morningglory [1, 15]: 90
Plant response rating, Crabgrass, Large [2, 16]: 10
Plant response rating, Crabgrass, Large [2, 17]: 30
Plant response rating, Crabgrass, Large [2, 18]: 40
Plant response rating, Crabgrass, Large [2, 19]: 70
Plant response rating, Crabgrass, Large [2, 28]: 90
Plant response rating, Crabgrass, Large [2, 21]: 90
Plant response rating, Crabgrass, Large [2, 22]: 98
Plant response rating, Crabgrass, Large [2, 23]: 100
Plant response rating, Foxtail, Giant [3, 16]: 10
Plant response rating, Foxtail, Giant [3, 17]: 15
Plant response rating, Foxtail, Giant [3, 18]: 25
Plant response rating, Foxtail, Giant [3, 19]: 50
Plant response rating, Foxtail, Giant [3, 28]: 90
Plant response rating, Foxtail, Giant [3, 21]: 90
Plant response rating, Foxtail, Giant [3, 22]: 90
Plant response rating, Foxtail, Giant [3, 23]: 95
Plant response rating, Corn [4, 17]: 15
Plant response rating, Corn [4, 18]: 25
Plant response rating, Corn [4, 19]: 30
Plant response rating, Corn [4, 28]: 5
Plant response rating, Corn [4, 21]: 5
Plant response rating, Corn [4, 22]: 10
Plant response rating, Corn [4, 23]: 30
Plant response rating, Barnyardgrass [5, 12]: 90
Barnyardgrass plant response rating [5, 27]: 90
Plant response rating, Barnyardgrass [5, 14]: 100
Plant response rating, Barnyardgrass [5, 15]: 100
Plant response rating, Kochia [6, 24]: 90
Plant response rating, Kochia [6, 25]: 90
Plant response rating, Kochia [6, 26]: 90
Plant response rating, Kochia ([6]; 250 g ai/ha, scale 0 to 100): 95
Plant response rating, Barnyardgrass (0 to 100 scale, 0 is no effect, 100 is complete control) ([7]; 250 g ai/ha): 75
Plant response rating, Velvetleaf [8, 12]: 100
Velvetleaf plant response rating [8, 27]: 100
Plant response rating, Velvetleaf [8, 14]: 30
Plant response rating, Ducksalad (0 to 100 scale, 0 is no effect, 100 is complete control) ([9]; 250 g ai/ha): 90
Plant response rating, Chickweed [10, 24]: 95
Plant response rating, Chickweed [10, 25]: 95
Plant response rating, Chickweed [10, 26]: 95
Plant response rating, Chickweed ([10]; 250 g ai/ha, scale 0 to 100): 98
Plant response rating, Soybean [11, 16]: 55
Plant response rating, Soybean [11, 17]: 80
Plant response rating, Soybean [11, 18]: 95
Plant response rating, Soybean [11, 19]: 95
Plant response rating, Soybean [11, 28]: 5
Plant response rating, Soybean [11, 21]: 10
Plant response rating, Soybean [11, 22]: 25
Plant response rating, Soybean [11, 23]: 25
